Values after ≈ are worked out from the molar mass of the structure shown. Bridge positions count the residues as written; N and C are the ends. Peptide text beside a SMILES is read from it. I, II: the chains in the order shown. * marks the point of attachment. Lauroyl = CCCCCCCCCCCC(=O)*; Decanoyl = CCCCCCCCCC(=O)*; Octanoyl = CCCCCCCC(=O)*; Hexanoyl = CCCCCC(=O)*; Butyryl = CCCC(=O)*
Tests used:
Format in all cases: functional
Settings in all cases: time 16-24 hrs
Staphylococcus aureus = experiment: Antibacterial activity against Staphylococcus aureus ATCC 25923 assessed as reduction in bacterial cell growth incubated for 16 to 24 hrs by CLSI-protocol based Mueller-Hinton Broth micro-dilution method
Bacillus subtilis = experiment: Antibacterial activity against Bacillus subtilis ATCC 23857 assessed as reduction in bacterial cell growth incubated for 16 to 24 hrs by CLSI-protocol based Mueller-Hinton Broth micro-dilution method
Escherichia coli = experiment: Antibacterial activity against Escherichia coli ATCC 25922 assessed as reduction in bacterial cell growth incubated for 16 to 24 hrs by CLSI-protocol based Mueller-Hinton Broth micro-dilution method
Pseudomonas aeruginosa = experiment: Antibacterial activity against Pseudomonas aeruginosa ATCC 27853 assessed as reduction in bacterial cell growth incubated for 16 to 24 hrs by CLSI-protocol based Mueller-Hinton Broth micro-dilution method
Klebsiella pneumoniae = experiment: Antibacterial activity against Klebsiella pneumoniae ATCC 700603 assessed as reduction in bacterial cell growth incubated for 16 to 24 hrs by CLSI-protocol based Mueller-Hinton Broth micro-dilution method

SMILES	MIC (Staphylococcus aureus)	MIC (Bacillus subtilis)	MIC (Escherichia coli)	MIC (Pseudomonas aeruginosa)	MIC (Klebsiella pneumoniae)
CCCC(=O)NCC(=O)N[C@@H](CC(C)C)C(=O)N[C@@H](CC(C)C)C(=O)N[C@@H](CCCCN)C(=O)N[C@@H](CCCNC(=N)N)C(=O)N[C@H](C(=O)N[C@@H](CCCCN)C(=O)N[C@H](C(=O)N[C@@H](CC(C)C)C(=O)N[C@@H](CC(C)C)C(=O)NCCCC[C@H](NC(=O)[C@H](CCCCNC(=O)[C@H](CC(C)C)NC(=O)[C@H](CC(C)C)NC(=O)[C@@H](NC(=O)[C@H](CCCCN)NC(=O)[C@@H](NC(=O)[C@H](CCCNC(=N)N)NC(=O)[C@H](CCCCN)NC(=O)[C@H](CC(C)C)NC(=O)[C@H](CC(C)C)NC(=O)CNC(=O)CCC)[C@@H](C)CC)[C@@H](C)O)NC(=O)[C@H](CC(C)C)NC(=O)[C@H](CC(C)C)NC(=O)[C@@H](NC(=O)[C@H](CCCCN)NC(=O)[C@@H](NC(=O)[C@H](CCCNC(=N)N)NC(=O)[C@H](CCCCN)NC(=O)[C@H](CC(C)C)NC(=O)[C@H](CC(C)C)NC(=O)CNC(=O)CCC)[C@@H](C)CC)[C@@H](C)O)C(N)=O)[C@@H](C)O)[C@@H](C)CC (I: Butyryl-GLLKRIKTLLKK-NH2 / II: Butyryl-GLLKRIKTLL / III: Butyryl-GLLKRIKTLL; amide I:11-III:C, I:12-II:C)	4 µM (≈ 15.6 µg/mL)	4 µM (≈ 15.6 µg/mL)	4 µM (≈ 15.6 µg/mL)	2 µM (≈ 7.79 µg/mL)	4 µM (≈ 15.6 µg/mL)
CCCCCCCCCC(=O)NCC(=O)N[C@@H](CC(C)C)C(=O)N[C@@H](CC(C)C)C(=O)N[C@@H](CCCCN)C(=O)N[C@@H](CCCNC(=N)N)C(=O)N[C@H](C(=O)N[C@@H](CCCCN)C(=O)N[C@H](C(=O)N[C@@H](CC(C)C)C(=O)N[C@@H](CC(C)C)C(=O)NCCCC[C@H](NC(=O)[C@H](CCCCNC(=O)[C@H](CC(C)C)NC(=O)[C@H](CC(C)C)NC(=O)[C@@H](NC(=O)[C@H](CCCCN)NC(=O)[C@@H](NC(=O)[C@H](CCCNC(=N)N)NC(=O)[C@H](CCCCN)NC(=O)[C@H](CC(C)C)NC(=O)[C@H](CC(C)C)NC(=O)CNC(=O)CCCCCCCCC)[C@@H](C)CC)[C@@H](C)O)NC(=O)[C@H](CC(C)C)NC(=O)[C@H](CC(C)C)NC(=O)[C@@H](NC(=O)[C@H](CCCCN)NC(=O)[C@@H](NC(=O)[C@H](CCCNC(=N)N)NC(=O)[C@H](CCCCN)NC(=O)[C@H](CC(C)C)NC(=O)[C@H](CC(C)C)NC(=O)CNC(=O)CCCCCCCCC)[C@@H](C)CC)[C@@H](C)O)C(N)=O)[C@@H](C)O)[C@@H](C)CC (I: Decanoyl-GLLKRIKTLLKK-NH2 / II: Decanoyl-GLLKRIKTLL / III: Decanoyl-GLLKRIKTLL; amide I:11-III:C, I:12-II:C)	128 µM (≈ 531 µg/mL)	56 µM (≈ 232 µg/mL)	128 µM (≈ 531 µg/mL)	32 µM (≈ 133 µg/mL)	32 µM (≈ 133 µg/mL)
CC[C@H](C)[C@H](NC(=O)[C@H](CCCNC(=N)N)NC(=O)[C@H](CCCCN)NC(=O)[C@H](CC(C)C)NC(=O)[C@H](CC(C)C)NC(=O)CN)C(=O)N[C@@H](CCCCN)C(=O)N[C@H](C(=O)N[C@@H](CC(C)C)C(=O)N[C@@H](CC(C)C)C(=O)NCCCC[C@H](NC(=O)[C@H](CCCCNC(=O)[C@H](CC(C)C)NC(=O)[C@H](CC(C)C)NC(=O)[C@@H](NC(=O)[C@H](CCCCN)NC(=O)[C@@H](NC(=O)[C@H](CCCNC(=N)N)NC(=O)[C@H](CCCCN)NC(=O)[C@H](CC(C)C)NC(=O)[C@H](CC(C)C)NC(=O)CN)[C@@H](C)CC)[C@@H](C)O)NC(=O)[C@H](CC(C)C)NC(=O)[C@H](CC(C)C)NC(=O)[C@@H](NC(=O)[C@H](CCCCN)NC(=O)[C@@H](NC(=O)[C@H](CCCNC(=N)N)NC(=O)[C@H](CCCCN)NC(=O)[C@H](CC(C)C)NC(=O)[C@H](CC(C)C)NC(=O)CN)[C@@H](C)CC)[C@@H](C)O)C(N)=O)[C@@H](C)O (I: H-GLLKRIKTLLKK-NH2 / II: H-GLLKRIKTLL / III: H-GLLKRIKTLL; amide I:11-III:C, I:12-II:C)	4 µM (≈ 14.7 µg/mL)	4 µM (≈ 14.7 µg/mL)	8 µM (≈ 29.5 µg/mL)	4 µM (≈ 14.7 µg/mL)	4 µM (≈ 14.7 µg/mL)
CCCCCC(=O)NCC(=O)N[C@@H](CC(C)C)C(=O)N[C@@H](CC(C)C)C(=O)N[C@@H](CCCCN)C(=O)N[C@@H](CCCNC(=N)N)C(=O)N[C@H](C(=O)N[C@@H](CCCCN)C(=O)N[C@H](C(=O)N[C@@H](CC(C)C)C(=O)N[C@@H](CC(C)C)C(=O)NCCCC[C@H](NC(=O)[C@H](CCCCNC(=O)[C@H](CC(C)C)NC(=O)[C@H](CC(C)C)NC(=O)[C@@H](NC(=O)[C@H](CCCCN)NC(=O)[C@@H](NC(=O)[C@H](CCCNC(=N)N)NC(=O)[C@H](CCCCN)NC(=O)[C@H](CC(C)C)NC(=O)[C@H](CC(C)C)NC(=O)CNC(=O)CCCCC)[C@@H](C)CC)[C@@H](C)O)NC(=O)[C@H](CC(C)C)NC(=O)[C@H](CC(C)C)NC(=O)[C@@H](NC(=O)[C@H](CCCCN)NC(=O)[C@@H](NC(=O)[C@H](CCCNC(=N)N)NC(=O)[C@H](CCCCN)NC(=O)[C@H](CC(C)C)NC(=O)[C@H](CC(C)C)NC(=O)CNC(=O)CCCCC)[C@@H](C)CC)[C@@H](C)O)C(N)=O)[C@@H](C)O)[C@@H](C)CC (I: Hexanoyl-GLLKRIKTLLKK-NH2 / II: Hexanoyl-GLLKRIKTLL / III: Hexanoyl-GLLKRIKTLL; amide I:11-III:C, I:12-II:C)	16 µM (≈ 63.6 µg/mL)	8 µM (≈ 31.8 µg/mL)	16 µM (≈ 63.6 µg/mL)	8 µM (≈ 31.8 µg/mL)	32 µM (≈ 127 µg/mL)
CCCCCCCCCCCC(=O)NCC(=O)N[C@@H](CC(C)C)C(=O)N[C@@H](CC(C)C)C(=O)N[C@@H](CCCCN)C(=O)N[C@@H](CCCNC(=N)N)C(=O)N[C@H](C(=O)N[C@@H](CCCCN)C(=O)N[C@H](C(=O)N[C@@H](CC(C)C)C(=O)N[C@@H](CC(C)C)C(=O)NCCCC[C@H](NC(=O)[C@H](CCCCNC(=O)[C@H](CC(C)C)NC(=O)[C@H](CC(C)C)NC(=O)[C@@H](NC(=O)[C@H](CCCCN)NC(=O)[C@@H](NC(=O)[C@H](CCCNC(=N)N)NC(=O)[C@H](CCCCN)NC(=O)[C@H](CC(C)C)NC(=O)[C@H](CC(C)C)NC(=O)CNC(=O)CCCCCCCCCCC)[C@@H](C)CC)[C@@H](C)O)NC(=O)[C@H](CC(C)C)NC(=O)[C@H](CC(C)C)NC(=O)[C@@H](NC(=O)[C@H](CCCCN)NC(=O)[C@@H](NC(=O)[C@H](CCCNC(=N)N)NC(=O)[C@H](CCCCN)NC(=O)[C@H](CC(C)C)NC(=O)[C@H](CC(C)C)NC(=O)CNC(=O)CCCCCCCCCCC)[C@@H](C)CC)[C@@H](C)O)C(N)=O)[C@@H](C)O)[C@@H](C)CC (I: Lauroyl-GLLKRIKTLLKK-NH2 / II: Lauroyl-GLLKRIKTLL / III: Lauroyl-GLLKRIKTLL; amide I:11-III:C, I:12-II:C)	64 µM (≈ 271 µg/mL)	256 µM (≈ 1080 µg/mL)	64 µM (≈ 271 µg/mL)	64 µM (≈ 271 µg/mL)	64 µM (≈ 271 µg/mL)
CCCCCCCC(=O)NCC(=O)N[C@@H](CC(C)C)C(=O)N[C@@H](CC(C)C)C(=O)N[C@@H](CCCCN)C(=O)N[C@@H](CCCNC(=N)N)C(=O)N[C@H](C(=O)N[C@@H](CCCCN)C(=O)N[C@H](C(=O)N[C@@H](CC(C)C)C(=O)N[C@@H](CC(C)C)C(=O)NCCCC[C@H](NC(=O)[C@H](CCCCNC(=O)[C@H](CC(C)C)NC(=O)[C@H](CC(C)C)NC(=O)[C@@H](NC(=O)[C@H](CCCCN)NC(=O)[C@@H](NC(=O)[C@H](CCCNC(=N)N)NC(=O)[C@H](CCCCN)NC(=O)[C@H](CC(C)C)NC(=O)[C@H](CC(C)C)NC(=O)CNC(=O)CCCCCCC)[C@@H](C)CC)[C@@H](C)O)NC(=O)[C@H](CC(C)C)NC(=O)[C@H](CC(C)C)NC(=O)[C@@H](NC(=O)[C@H](CCCCN)NC(=O)[C@@H](NC(=O)[C@H](CCCNC(=N)N)NC(=O)[C@H](CCCCN)NC(=O)[C@H](CC(C)C)NC(=O)[C@H](CC(C)C)NC(=O)CNC(=O)CCCCCCC)[C@@H](C)CC)[C@@H](C)O)C(N)=O)[C@@H](C)O)[C@@H](C)CC (I: Octanoyl-GLLKRIKTLLKK-NH2 / II: Octanoyl-GLLKRIKTLL / III: Octanoyl-GLLKRIKTLL; amide I:11-III:C, I:12-II:C)	32 µM (≈ 130 µg/mL)	32 µM (≈ 130 µg/mL)	32 µM (≈ 130 µg/mL)	32 µM (≈ 130 µg/mL)	128 µM (≈ 520 µg/mL)
